Assay: ultra-micro hardness under load (HTL) of coating layer, JIS Z2255, dynamic ultra micro hardness tester
Assay type: physicochemical
Settings: coating layer on SUS disc; 50 mg sirolimus, 50 mg PLGA, 10 mg (20% based on PLGA) of the triglyceride; about 30 μm
Protocol: When the medium-chain fatty acid triglyceride is added to the coating layer (for example, the layer formed on at least a part of a surface of a stent main body and formed from the composition containing the biologically active agent, the biodegradable polymer, and the medium-chain fatty acid triglyceride) formed on a surface of the in-vivo indwelling device, for example, on a surface of a stent, flexibility can be imparted to the coating layer. In addition, as a method for quantitatively measuring the flexibility of a very thin layer such as the above-mentioned coating layer, measurement of ultra-micro hardness under load (also called “HTL,” “dynamic hardness” and “universal hardness”) by use of an ultra-micro hardness tester can be used. In this method, as described in JIS Z2255, hardness of a solid material is measured as a resistance to a triangular pyramid diamond indenter when the indenter is pressed against the surface of a specimen, and it is possible by the method to measure hardness in a very minute region of a solid material having a thickness of not less than 10 μm. In order that such a damage as cracking of the coating layer or exfoliation of the coating layer from the stent main body is mitigated or not generated when the stent is expanded, the ultra-micro hardness under load can be 15 or below, more preferably 12 or below, and particularly preferably 10 or below. The present inventors have made earnest search for a substance which causes the ultra-micro hardness under load of the coating layer to be, for example, 15 or below and which is high in safety, among a large number of additives. As a result of the search, they found exemplary medium-chain fatty acid triglycerides.
The circular discs provided thereon with the respective coating layers were sterilized by electron beams, and ultra-micro hardness under load (HTL) of the coating layers was measured according to JIS Z2255 by use of a dynamic ultra micro hardness tester produced by Shimadzu Corporation. A lower value of HTL indicates a higher flexibility of the coating layer.
The stent was crimped onto a balloon of a delivery catheter, and sterilized by electron beams. The ultra-micro hardness under load (HTL) of the coating layer after sterilization was measured according to JIS Z2255 by use of a dynamic ultra micro hardness tester produced by Shimadzu Corporation.

| Structure (SMILES) | ultra-micro hardness under load (HTL) |
| --- | --- |
| CCCCCCCCCCCC(=O)OCC(COC(=O)CCCCCCCCCCC)OC(=O)CCCCCCCCCCC [Trilaurin] | 15 |
| CC(=O)OCC(COC(C)=O)OC(C)=O [Triacetin] | 20 |
| CCCC(=O)OCC(COC(=O)CCC)OC(=O)CCC [Tributyrin] | 19 |
| CCCCCCCCCCCCCC(=O)OCC(COC(=O)CCCCCCCCCCCCC)OC(=O)CCCCCCCCCCCCC [Trimyristin] | 20 |
| CCCCCC(=O)OCC(COC(=O)CCCCC)OC(=O)CCCCC [Tricaproin] | 15 |
| CCCCCCCC(=O)OCC(COC(=O)CCCCCCC)OC(=O)CCCCCCC [Tricaprylin] | 10 |
| CCCCCCCCCC(=O)OCC(COC(=O)CCCCCCCCC)OC(=O)CCCCCCCCC [Tricaprin] | 9 |

— patent US20100233229A1, “IN-VIVO INDWELLING DEVICE” (Terumo Kabushiki Kaisha, priority 2007, published 2010)
